Reference: the supplement of paper PMC11061612

Columns and labels:
[1] = system: BICR78 (Oral Cavity Carcinoma); assay: Bliss excess, mean over the matrix (fraction); higher = more synergy
Summary of the method: (§1)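 Cell lines grown in DMEM/F12 or RPMI with 10% FBS were plated in 1536-well plates and held 24 hours at 37°C, 5% CO2 before 72 hours of exposure to two-drug dose matrices, with DMSO typically at 0.2%. CellTiter-Glo 2.0 luminescence gave viability, which was converted to inhibition. Vehicle wells were set to 0 and blank wells to 1. Combination Emax is the second-highest inhibition in the matrix, and Bliss excess is the observed combination effect minus the expected EA + EB − EA·EB, where EA and EB are the single-agent effects.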

[2] = system: HCT-116 (Colorectal Carcinoma); assay: as above
Summary of the method: as §1

[3] = system: JHH-6 (Hepatocellular Carcinoma); assay: as above
Summary of the method: as §1

[4] = system: MES-SA (Other Solid Carcinomas); assay: as above
Summary of the method: as §1

[5] = system: SK-LMS-1 (Other Solid Carcinomas); assay: as above
Summary of the method: as §1

[6] = system: 647-V (Bladder Carcinoma); assay: combination Emax (second highest fraction inhibited in the dose matrix, 72 h); higher = more inhibition; extreme values may be limits of the assay
Summary of the method: as §1

[7] = system: BICR78 (Oral Cavity Carcinoma); assay: as above
Summary of the method: as §1

[8] = system: DOK (Oral Cavity Carcinoma); assay: as above
Summary of the method: as §1

[9] = system: ETK-1 (Biliary Tract Carcinoma); assay: as above
Summary of the method: as §1

[10] = system: EW-22 (Ewing's Sarcoma); assay: as above
Summary of the method: as §1

[11] = system: HCC38 (Breast Carcinoma); assay: as above
Summary of the method: as §1

[12] = system: HLE (Hepatocellular Carcinoma); assay: as above
Summary of the method: as §1

[13] = system: MES-SA (Other Solid Carcinomas); assay: as above
Summary of the method: as §1

[14] = system: P31-FUJ (Acute Myeloid Leukemia); assay: as above
Summary of the method: as §1

[15] = system: SK-UT-1 (Other Solid Carcinomas); assay: as above
Summary of the method: as §1

[16] = system: SNG-M (Endometrial Carcinoma); assay: as above
Summary of the method: as §1

[17] = system: TYK-nu (Ovarian Carcinoma); assay: as above
Summary of the method: as §1

[18] = system: WSU-DLCL2 (B-Cell Non-Hodgkin's Lymphoma); assay: as above
Summary of the method: as §1

[19] = system: YT (Other Blood Carcinomas); assay: as above
Summary of the method: as §1
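Wherever Bliss excess, mean over the matrix is given: after 72 h of two-drug dosing.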

Compound	Bliss excess [1]	Bliss excess [2]	Bliss excess [3]	Bliss excess [4]	Bliss excess [5]	combination Emax [6]	combination Emax [7]	combination Emax [8]	combination Emax [9]	combination Emax [10]	combination Emax [11]	combination Emax [12]	combination Emax [13]	combination Emax [14]	combination Emax [15]	combination Emax [16]	combination Emax [17]	combination Emax [18]	combination Emax [19]
NC1(C(=O)N[C@@H](CCO)c2ccc(Cl)cc2)CCN(c2ncnc3[nH]ccc23)CC1 [Capivasertib] + CC(C)n1c(=O)n(C)c2cnc3cc(F)c(-c4ccc(OCCCN5CCCCC5)nc4)cc3c21 [AZD1390] (first compound max 10 µM, 7x7, partner max 0.3 µM)	-0.0552	-0.0263	-0.0908	-0.0275	-0.045	0.22	0.368	0.5	0.331	0.437	0.352	0.194	0.469	0.645	0.354	0.29	0.309	1	0.336
Cn1cnc2c(F)c(Nc3ccc(Br)cc3Cl)c(C(=O)NOCCO)cc21 [Selumetinib] + C=CCn1c(=O)c2cnc(Nc3ccc(N4CCN(C)CC4)cc3)nc2n1-c1cccc(C(C)(C)O)n1 [AZD1775] (first compound max 10 µM, partner max 1 µM)	-0.0678	-0.0286	-0.0963	-0.0289	0.0059	0.651	0.344	0.618	0.384	0.573	0.377	0.345	0.731	0.935	0.58	0.555	0.715	0.961	0.945
Cn1cnc2c(F)c(Nc3ccc(Br)cc3Cl)c(C(=O)NOCCO)cc21 [Selumetinib] + C[C@@H]1COCCN1C2=NC(=NC(=C2)C3(CC3)[S@](=N)(=O)C)C4=C5C=CNC5=NC=C4 [AZD6738] (first compound max 10 µM, 7x7, partner max 10 µM)	-0.001	-0.0093	-0.0064	0.0021	0.0453	0.757	0.592	0.51	0.587	0.855	0.373	0.404	0.601	0.948	0.801	0.866	0.732	0.762	0.801
NC1(C(=O)N[C@@H](CCO)c2ccc(Cl)cc2)CCN(c2ncnc3[nH]ccc23)CC1 [Capivasertib] + Cn1cnc2c(F)c(Nc3ccc(Br)cc3Cl)c(C(=O)NOCCO)cc21 [Selumetinib] (first compound max 10 µM, 7x7, partner max 10 µM)	-0.0016	0.0512	-0.0262	-0.0017	0.0883	0.3	0.548	0.931	0.48	0.543	0.29	0.236	0.496	0.931	0.447	0.648	0.667	1	0.446
CS(=O)(=O)CCNCc1ccc(-c2ccc3ncnc(Nc4ccc(OCc5cccc(F)c5)c(Cl)c4)c3c2)o1 [Lapatinib] + Cn1cnc2c(F)c(Nc3ccc(Br)cc3Cl)c(C(=O)NOCCO)cc21 [Selumetinib] (first compound max 10 µM, 7x7, partner max 10 µM)	-0.0343	-0.0864			0.0047		0.547	0.933		0.242	0.214	0.234		0.521	0.501	0.43		0.472	0.725
COc1nnc2ccc(N3CCC(c4ccc(OCCN5CCN(C)C(=O)[C@H]5C)cc4)CC3)nn12 [AZD5153] + CCN(CCO)CCCOc1ccc2c(Nc3cc(CC(=O)Nc4cccc(F)c4)[nH]n3)ncnc2c1 [AZD2811] (first compound max 1 µM, 7x7, partner max 1 µM)	-0.0537	-0.0384	-0.0683	-0.0028	0.0012	0.545	0.542	0.544	0.463	0.787	0.426	0.521	0.587	0.982	0.658	0.502	0.657	0.942	0.666
NC1(C(=O)N[C@@H](CCO)c2ccc(Cl)cc2)CCN(c2ncnc3[nH]ccc23)CC1 [Capivasertib] + C[C@@H]1COCCN1C2=NC(=NC(=C2)C3(CC3)[S@](=N)(=O)C)C4=C5C=CNC5=NC=C4 [AZD6738] (first compound max 10 µM, 7x7, partner max 10 µM)	0.0163	-0.0432	-0.0229	-0.0719	0.0094	0.76	0.628	0.601	0.695	0.908	0.621	0.605	0.721	0.971	0.829	0.888	0.728	1	0.838
COc1nnc2ccc(N3CCC(c4ccc(OCCN5CCN(C)C(=O)[C@H]5C)cc4)CC3)nn12 [AZD5153] + C[C@@H]1COCCN1C2=NC(=NC(=C2)C3(CC3)[S@](=N)(=O)C)C4=C5C=CNC5=NC=C4 [AZD6738] (first compound max 1 µM, 7x7, partner max 10 µM)	0.0056	-0.0049	-0.0111	0.0781	-0.0163	0.789	0.636	0.569	0.717	0.927	0.486	0.689	0.763	0.987	0.925	0.901	0.803	1	0.923
COc1nnc2ccc(N3CCC(c4ccc(OCCN5CCN(C)C(=O)[C@H]5C)cc4)CC3)nn12 [AZD5153] + CC1(C)CCC(CN2CCN(c3ccc(C(=O)NS(=O)(=O)c4ccc(NCC5CCOCC5)c([N+](=O)[O-])c4)c(Oc4cnc5[nH]ccc5c4)c3)CC2)=C(c2ccc(Cl)cc2)C1 [Venetoclax] (first compound max 1 µM, 7x7, partner max 1 µM)	-0.0468	-0.0614	-0.0443	-0.06	-0.0641	0.463	0.468	0.431	0.445	0.6	0.458	0.336	0.386	0.974	0.543	0.548	0.571	1	0.714
COc1cc2ncnc(Nc3ccc(F)c(Cl)c3)c2cc1OCCCN1CCOCC1 [Gefitinib] + CC(C)n1c(=O)n(C)c2cnc3cc(F)c(-c4ccc(OCCCN5CCCCC5)nc4)cc3c21 [AZD1390] (first compound max 10 µM, 7x7, partner max 0.3 µM)	-0.0788	-0.0453	-0.0603	-0.0458	-0.0726	0.0854	0.286	0.382	0.576	0.244	0.109	0.101	0.0714	0.455	0.0993	0.229	0.197	0.128	0.185
COc1nnc2ccc(N3CCC(c4ccc(OCCN5CCN(C)C(=O)[C@H]5C)cc4)CC3)nn12 [AZD5153] + Cc1c2c(nn1C)CSCc1cc(n(C)n1)CSc1cc(c3ccccc3c1)OCCCc1c(C(=O)O)n(C)c3c-2c(Cl)ccc13 [AZD5991] (first compound max 1 µM, 7x7, partner max 1 µM)	-0.027	-0.0049	-0.0727	-0.0125	0.0003	0.587	0.501	0.914	0.513	0.888	0.479	0.626	0.593	0.995	0.653	0.639	0.646	1	1
Cc1nc(-c2cn3c(n2)-c2ccc(-c4cnn(C(C)(C)C(N)=O)c4)cc2OCC3)n(C(C)C)n1 [Taselisib] + O=C(Nc1ccc2[nH]nc(-c3ccncc3)c2c1)[C@@H]1CCN(CC(=O)N2CCN(c3ccc(-c4ncccn4)cc3)CC2)C1 [SCH772984] (first compound max 10 µM, 7x7, partner max 5 µM)	-0.011	0.138			0.106		0.66	1		0.719	0.355	0.33		0.948	0.485	0.76		0.961	0.597
C=CCn1c(=O)c2cnc(Nc3ccc(N4CCN(C)CC4)cc3)nc2n1-c1cccc(C(C)(C)O)n1 [AZD1775] + C1CN(CCC1(C(=O)N[C@@H](CCO)C2=CC=C(C=C2)Cl)N)C3=NC=NC4=C3C=CN4 [Capivasertib] (first compound max 3 µM, partner max 3 µM)	-0.0822	0.0051	-0.0294		-0.087	0.948	0.441	0.754	0.664	0.786	0.748	0.858	0.863	0.999	0.817	0.83	0.695	1	0.949
CS(=O)(=O)CCNCc1ccc(-c2ccc3ncnc(Nc4ccc(OCc5cccc(F)c5)c(Cl)c4)c3c2)o1 [Lapatinib] + NC1(c2ccc(-c3nc4ccn5c(=O)[nH]nc5c4cc3-c3ccccc3)cc2)CCC1 [MK-2206] (first compound max 10 µM, 7x7, partner max 10 µM)	0.0068	-0.0347			0.0031		0.545	0.935	0.947	0.868	0.503	0.597		0.947	0.636	0.667	0.894	0.99	0.945
